# Measured values from patent US4017611A, “Control of insects with 3-hydroxymethacrylic acid methyl ester dimethylthionophosphate” (priority 1970, dated 1977).
# Where two headings read alike, the source gives them in different places.
# Columns and labels:
# [1] = Acute oral toxicity (warm blooded toxicity) in rats; details: rat, in vivo, po
# Rhizopertha dominica = experiment: Durability (disinfection) test on wheat, lesser grain borer; assay type: in vivo; details: Rhyzopertha dominica, 168 h, read-out: % animals dead after one week exposure
# Source text: (§1) Wheat was shaken up with 5% dusting agent and then mixed again repeatedly with untreated wheat at half the poison concentration. In this way, a dilution series with concentrations of 50 - 25 - 12 - 6 - 3 - 1.5 ppm was obtained.
# (§2) Since the test is repeated once per month, the desired information is obtained concerning the residual effect. In the test, the important pests in storage protection were chosen, viz, the grain weevil (Sitophilus granarius) - lesser grain borer (Rhizopertha dominica) and the larvae of the Khapra beetle (Trogoderma granarium), which are very resistant to insecticides. 20 test insects were tested per concentration and the results are expressed in the following table.
# Sitophilus granarius = experiment: Durability (disinfection) test on wheat, grain weevil; assay type: in vivo; details: 168 h, read-out: % animals dead after one week exposure
# Source text: as §1, §2
# Sit. Granarius = experiment: Diffusion action in wheat (gas phase between wheat grains); assay type: in vivo; details: Sitophilus granarius, 168 h, 50 ppm treated wheat layer, read-out: Mortality in % after 7 days exposure time
# Source text: A plexiglass box was divided by means of wire grids into ten vertical layers each 1 cm thick. Each compartment was filled with wheat grains. The first compartment contained wheat grains which had been treated with 50 ppm active agent (5% dusting agent). The remainder of the compartment contained untreated wheat. All the compartments were then supplied with grain weevils. The mortality was noted after 7 days exposure time and the results are expressed in the following table. Diffusion of active substance in gas phase between the wheat grains
# Trogoderma granarium (L) = experiment: Durability (disinfection) test on wheat, larvae of the Khapra beetle; assay type: in vivo; details: 168 h, read-out: % animals dead after one week exposure
# Source text: as §1, §2
smiles,measurement,setting,value
"COP(=O)(OC)OC=C(Cl)Cl [DDVP, dimethyldichlorvinylphosphate, reference compound]",LD50,[1],50 mg/kg
same,mortality at 1.5 ppm,Rhizopertha dominica; wheat fresh,95%
same,mortality at 1.5 ppm,Rhizopertha dominica; wheat stored 1 month,0%
same,mortality at 1.5 ppm,Rhizopertha dominica; wheat stored 2 months,5%
same,mortality at 1.5 ppm,Rhizopertha dominica; wheat stored 3 months,0%
same,mortality at 3 ppm,Rhizopertha dominica; wheat fresh,100%
same,mortality at 3 ppm,Rhizopertha dominica; wheat stored 1 month,5%
same,mortality at 3 ppm,Rhizopertha dominica; wheat stored 2 months,0%
same,mortality at 3 ppm,Rhizopertha dominica; wheat stored 3 months,0%
same,mortality at 6 ppm,Rhizopertha dominica; wheat fresh,100%
same,mortality at 6 ppm,Rhizopertha dominica; wheat stored 1 month,10%
same,mortality at 6 ppm,Rhizopertha dominica; wheat stored 2 months,5%
same,mortality at 6 ppm,Rhizopertha dominica; wheat stored 3 months,0%
same,mortality at 12 ppm,Rhizopertha dominica; wheat fresh,100%
same,mortality at 12 ppm,Rhizopertha dominica; wheat stored 1 month,15%
same,mortality at 12 ppm,Rhizopertha dominica; wheat stored 2 months,20%
same,mortality at 12 ppm,Rhizopertha dominica; wheat stored 3 months,0%
same,mortality at 25 ppm,Rhizopertha dominica; wheat fresh,100%
same,mortality at 25 ppm,Rhizopertha dominica; wheat stored 1 month,65%
same,mortality at 25 ppm,Rhizopertha dominica; wheat stored 2 months,40%
same,mortality at 25 ppm,Rhizopertha dominica; wheat stored 3 months,15%
same,mortality at 50 ppm,Rhizopertha dominica; wheat fresh,100%
same,mortality at 50 ppm,Rhizopertha dominica; wheat stored 1 month,100%
same,mortality at 50 ppm,Rhizopertha dominica; wheat stored 2 months,95%
same,mortality at 50 ppm,Rhizopertha dominica; wheat stored 3 months,80%
same,mortality at 1.5 ppm,Sitophilus granarius; wheat fresh,100%
same,mortality at 1.5 ppm,Sitophilus granarius; wheat stored 1 month,0%
same,mortality at 1.5 ppm,Sitophilus granarius; wheat stored 2 months,0%
same,mortality at 1.5 ppm,Sitophilus granarius; wheat stored 3 months,0%
same,mortality at 3 ppm,Sitophilus granarius; wheat fresh,100%
same,mortality at 3 ppm,Sitophilus granarius; wheat stored 1 month,5%
same,mortality at 3 ppm,Sitophilus granarius; wheat stored 2 months,0%
same,mortality at 3 ppm,Sitophilus granarius; wheat stored 3 months,0%
same,mortality at 6 ppm,Sitophilus granarius; wheat fresh,100%
same,mortality at 6 ppm,Sitophilus granarius; wheat stored 1 month,25%
same,mortality at 6 ppm,Sitophilus granarius; wheat stored 2 months,0%
same,mortality at 6 ppm,Sitophilus granarius; wheat stored 3 months,0%
same,mortality at 12 ppm,Sitophilus granarius; wheat fresh,100%
same,mortality at 12 ppm,Sitophilus granarius; wheat stored 1 month,100%
same,mortality at 12 ppm,Sitophilus granarius; wheat stored 2 months,55%
same,mortality at 12 ppm,Sitophilus granarius; wheat stored 3 months,0%
same,mortality at 25 ppm,Sitophilus granarius; wheat fresh,100%
same,mortality at 25 ppm,Sitophilus granarius; wheat stored 1 month,100%
same,mortality at 25 ppm,Sitophilus granarius; wheat stored 2 months,100%
same,mortality at 25 ppm,Sitophilus granarius; wheat stored 3 months,50%
same,mortality at 50 ppm,Sitophilus granarius; wheat fresh,100%
same,mortality at 50 ppm,Sitophilus granarius; wheat stored 1 month,100%
same,mortality at 50 ppm,Sitophilus granarius; wheat stored 2 months,100%
same,mortality at 50 ppm,Sitophilus granarius; wheat stored 3 months,99%
same,mortality at 50 ppm,Sit. Granarius; distance 1 cm,100%
same,mortality at 50 ppm,Sit. Granarius; distance 2 cm,100%
same,mortality at 50 ppm,Sit. Granarius; distance 3 cm,80%
same,mortality at 50 ppm,Sit. Granarius; distance 4 cm,0%
same,mortality at 50 ppm,Sit. Granarius; distance 5 cm,0%
same,mortality at 50 ppm,Sit. Granarius; distance 6 cm,0%
same,mortality at 1.5 ppm,Trogoderma granarium (L); wheat fresh,85%
same,mortality at 1.5 ppm,Trogoderma granarium (L); wheat stored 1 month,0%
same,mortality at 1.5 ppm,Trogoderma granarium (L); wheat stored 2 months,0%
same,mortality at 1.5 ppm,Trogoderma granarium (L); wheat stored 3 months,0%
same,mortality at 3 ppm,Trogoderma granarium (L); wheat fresh,100%
same,mortality at 3 ppm,Trogoderma granarium (L); wheat stored 1 month,0%
same,mortality at 3 ppm,Trogoderma granarium (L); wheat stored 2 months,0%
same,mortality at 3 ppm,Trogoderma granarium (L); wheat stored 3 months,0%
same,mortality at 6 ppm,Trogoderma granarium (L); wheat fresh,100%
same,mortality at 6 ppm,Trogoderma granarium (L); wheat stored 1 month,0%
same,mortality at 6 ppm,Trogoderma granarium (L); wheat stored 2 months,0%
same,mortality at 6 ppm,Trogoderma granarium (L); wheat stored 3 months,0%
same,mortality at 12 ppm,Trogoderma granarium (L); wheat fresh,100%
same,mortality at 12 ppm,Trogoderma granarium (L); wheat stored 1 month,5%
same,mortality at 12 ppm,Trogoderma granarium (L); wheat stored 2 months,0%
same,mortality at 12 ppm,Trogoderma granarium (L); wheat stored 3 months,0%
same,mortality at 25 ppm,Trogoderma granarium (L); wheat fresh,100%
same,mortality at 25 ppm,Trogoderma granarium (L); wheat stored 1 month,75%
same,mortality at 25 ppm,Trogoderma granarium (L); wheat stored 2 months,10%
same,mortality at 25 ppm,Trogoderma granarium (L); wheat stored 3 months,0%
same,mortality at 50 ppm,Trogoderma granarium (L); wheat fresh,100%
same,mortality at 50 ppm,Trogoderma granarium (L); wheat stored 1 month,100%
same,mortality at 50 ppm,Trogoderma granarium (L); wheat stored 2 months,45%
same,mortality at 50 ppm,Trogoderma granarium (L); wheat stored 3 months,0%
